The supplement of paper PMC10307832

Key:
Assay in all cases: relative viability (nuclei count vs DMSO), 5 days (fraction); higher = more cells survive
[1] = compound: CC1=C(C=C(C=C1)NC(=O)C2=CC(=CC=C2)C(C)(C)C#N)NC3=CC4=C(C=C3)N=CN(C4=O)C [AZ628] + Nc1ncn([C@H]2C[C@H](O)[C@@H](CO)O2)c(=O)n1 [Decitabine] (partner 2 µM)
In short: (§1)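 Medians of duplicate plates are given as relative viability. That measure is the nuclei count in treated wells divided by the count in vehicle wells. Counts were taken on 4× images of lung cancer cell lines in 1536-well plates, 5 days after pin-tool dosing the day after seeding with one drug alone or a fixed anchor-drug dose plus five library-drug doses (not always all listed) in √10 steps.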

[2] = compound: C1CC2=C(C1)C=C(C=C2)OC3=NC(=C4C(=N3)N(C=N4)CC5=CC=C(C=C5)C6=CC=CC=C6)N[C@@H](CC7=CC=CC=C7)CO [QS11] + CC(C)C[C@H](NC(=O)[C@H](Cc1ccccc1)NC(=O)c1cnccn1)B(O)O [Bortezomib] (partner 0.002 µM)
In short: as §1

[3] = compound: C1CC2=C(C1)C=C(C=C2)OC3=NC(=C4C(=N3)N(C=N4)CC5=CC=C(C=C5)C6=CC=CC=C6)N[C@@H](CC7=CC=CC=C7)CO [QS11] + CS(=O)(=O)N1CCN(Cc2cc3nc(-c4cccc5[nH]ncc45)nc(N4CCOCC4)c3s2)CC1 [Pictilisib] (partner 1 µM)
In short: as §1

[4] = compound: CC1=C(C=C(C=C1)NC(=O)C2=CC(=CC=C2)C(C)(C)C#N)NC3=CC4=C(C=C3)N=CN(C4=O)C [AZ628] + N=C(N)NC(=N)NCCc1ccccc1 [Phenformin] (partner 250 µM)
In short: as §1

| Cell Line | relative viability ([1]; first compound 0.08 µM) | relative viability ([1]; first compound 0.253 µM) | relative viability ([1]; first compound 0.8 µM) | relative viability ([1]; first compound 2.53 µM) | relative viability ([1]; first compound 8 µM) | relative viability ([2]; first compound 0.08 µM) | relative viability ([2]; first compound 0.253 µM) | relative viability ([2]; first compound 0.8 µM) | relative viability ([2]; first compound 2.53 µM) | relative viability ([2]; first compound 8 µM) | relative viability ([3]; first compound 0.08 µM) | relative viability ([3]; first compound 0.253 µM) | relative viability ([3]; first compound 0.8 µM) | relative viability ([3]; first compound 2.53 µM) | relative viability ([3]; first compound 8 µM) | relative viability ([4]; first compound 0.08 µM) | relative viability ([4]; first compound 0.253 µM) | relative viability ([4]; first compound 0.8 µM) | relative viability ([4]; first compound 2.53 µM) | relative viability ([4]; first compound 8 µM) |
| --- | --- | --- | --- | --- | --- | --- | --- | --- | --- | --- | --- | --- | --- | --- | --- | --- | --- | --- | --- | --- |
| NCI-H1975 | 0.402 | 0.358 | 0.344 | 0.338 | 0.265 | 0.333 | 0.403 | 0.541 | 0.364 | 0.3 | 0.289 | 0.234 | 0.327 | 0.364 | 0.478 | 0.421 | 0.388 | 0.403 | 0.384 | 0.215 |
| BEN | 0.758 | 0.637 | 0.651 | 0.668 | 0.735 | 0.635 | 1.01 | 1.07 | 0.916 | 1.07 | 0.554 | 0.641 | 0.529 | 0.524 | 0.705 | 0.265 | 0.331 | 0.268 | 0.27 | 0.231 |
| NCI-H1437 | 0.606 | 0.548 | 0.531 | 0.613 | 0.659 | 0.569 | 0.325 | 0.459 | 0.402 | 0.336 | 0.421 | 0.468 | 0.38 | 0.41 | 0.399 | 0.369 | 0.266 | 0.262 | 0.331 | 0.318 |
| NCI-H1734 | 0.515 | 0.549 | 0.5 | 0.457 | 0.344 | 0.932 | 0.913 | 0.848 | 0.822 | 0.738 | 0.44 | 0.433 | 0.408 | 0.38 | 0.358 | 0.383 | 0.346 | 0.282 | 0.327 | 0.247 |
| NCI-H596 | 1.02 | 1.12 | 1.13 | 1.1 | 0.933 |  | 0.807 | 1.15 | 0.869 | 1.06 | 0.382 | 0.189 | 0.516 | 0.404 | 0.438 | 0.722 | 0.85 | 0.969 | 0.781 | 0.808 |
| LOU-NH91 | 0.814 | 0.811 | 0.801 | 0.816 | 0.749 | 0.494 | 0.491 | 0.417 | 0.488 | 0.437 | 0.541 | 0.484 |  | 0.494 | 0.54 | 0.749 | 0.654 | 0.776 | 0.661 | 0.438 |
| NCI-H2342 | 0.837 | 0.651 | 0.779 | 0.726 | 0.747 |  |  |  |  |  |  |  |  |  |  | 0.657 | 0.469 | 0.653 | 0.65 | 0.646 |
| NCI-H522 | 0.62 | 0.66 | 0.686 | 0.78 | 0.522 |  |  |  |  |  |  |  |  |  |  | 0.628 | 0.516 | 0.617 | 0.542 | 0.663 |
| SK-MES-1 | 0.448 | 0.379 | 0.434 | 0.43 | 0.338 |  |  |  |  |  | 0.379 | 0.315 | 0.381 | 0.306 | 0.311 | 0.715 | 0.661 | 0.619 | 0.675 | 0.466 |
| UMC-11 | 0.704 | 0.65 | 0.551 | 0.556 | 0.758 | 0.668 | 0.851 | 0.816 | 1.01 | 0.68 | 0.748 | 0.844 | 0.899 | 0.901 | 1.12 | 0.322 | 0.268 | 0.339 | 0.294 | 0.255 |
| LK-2 | 0.308 | 0.271 | 0.326 | 0.338 | 0.184 |  |  |  |  |  | 0.605 | 0.698 | 0.537 | 0.547 | 0.602 | 0.508 | 0.312 | 0.557 | 0.304 | 0.172 |
| CAL-12T |  |  |  |  |  | 0.893 | 0.865 | 0.809 | 1.07 | 1.03 | 0.446 | 0.412 | 0.665 | 0.314 | 0.38 | 0.553 | 0.492 | 0.335 | 0.414 | 0.336 |
| PC-3 [JPC-3] | 0.86 | 0.813 | 0.924 | 0.827 | 0.642 | 0.827 | 0.88 | 0.767 | 0.828 | 0.678 | 0.699 | 0.652 | 0.707 | 0.648 | 0.601 | 0.441 | 0.477 | 0.485 | 0.464 | 0.383 |
| NCI-H1651 | 0.67 | 0.571 | 0.653 | 0.683 | 0.593 | 0.954 | 1.06 | 0.804 | 0.959 | 0.994 | 0.604 | 0.657 | 0.53 | 0.471 | 0.439 | 0.396 | 0.316 | 0.334 | 0.312 | 0.36 |
| NCI-H650 | 0.349 | 0.396 | 0.46 | 0.335 | 0.336 | 0.681 | 0.625 | 0.815 | 0.819 | 0.888 | 0.861 | 0.939 | 0.902 | 0.876 | 0.958 | 0.536 | 0.471 | 0.552 | 0.509 | 0.498 |
| HOP-62 | 0.235 | 0.265 | 0.236 | 0.249 | 0.214 | 0.718 | 1.01 | 0.728 | 0.594 | 0.652 | 0.822 | 0.688 | 0.738 | 0.514 | 0.435 | 0.792 | 0.821 | 0.707 | 0.746 | 0.437 |
| LC-2-ad | 0.821 | 0.782 | 0.816 | 0.732 | 0.453 | 0.987 | 1.03 | 0.651 | 0.962 | 1.1 | 0.506 | 0.478 | 0.441 | 0.534 | 0.547 | 0.606 | 0.562 | 0.556 | 0.49 | 0.532 |
| EPLC-272H | 0.297 | 0.328 | 0.371 | 0.319 | 0.225 | 0.954 | 0.947 | 0.81 | 0.946 | 0.798 | 0.372 | 0.347 | 0.298 | 0.387 | 0.274 | 0.419 | 0.37 | 0.363 | 0.302 | 0.2 |
